# What was measured:
# Assay in all cases: cells
# KARPAS-299 = assay type: functional, cell-based, Homo sapiens; conditions: karpas-299
# Description: SANGER: Inhibition of human KARPAS-299 cell growth in a cell viability assay.
# K5 = assay type: functional, cell-based, Homo sapiens; conditions: k5
# Description: SANGER: Inhibition of human K5 cell growth in a cell viability assay.
# TGBC24TKB = assay type: functional, cell-based, Homo sapiens; conditions: tgbc24tkb;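 further: growth inhibition of human TGBC24TKB cells, read out with a cell viability assay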
# Description: SANGER: Inhibition of human TGBC24TKB cell growth in a cell viability assay.
# KE-37 = assay type: functional, cell-based, Homo sapiens; conditions: ke-37;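 further: growth inhibition of KE-37 cells, read out with a cell viability assay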
# Description: SANGER: Inhibition of human KE-37 cell growth in a cell viability assay.
# Lu-65 = assay type: functional, cell-based, Homo sapiens; conditions: lu-65;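 further: growth inhibition of Lu-65 cancer cells, read out by a cell viability assay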
# Description: SANGER: Inhibition of human LU-65 cell growth in a cell viability assay.
# SCH = assay type: functional, cell-based, Homo sapiens; conditions: sch;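 further: growth inhibition of human SCH cells, read out in a cell viability assay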
# Description: SANGER: Inhibition of human SCH cell growth in a cell viability assay.
# RS4-11 = assay type: functional, cell-based, Homo sapiens; conditions: rs4-11;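 further: growth inhibition of RS4-11 cells, read out by a cell viability assay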
# Description: SANGER: Inhibition of human RS4-11 cell growth in a cell viability assay.
# NCI-H1650 = assay type: functional, cell-based, Homo sapiens; conditions: nci-h1650;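 further: growth inhibition of human NCI-H1650 cells measured by a cell viability assay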
# Description: SANGER: Inhibition of human NCI-H1650 cell growth in a cell viability assay.
# D-502MG = assay type: functional, cell-based, Homo sapiens; conditions: d-502mg
# Description: SANGER: Inhibition of human D-502MG cell growth in a cell viability assay.
# Ramos-2G6-4C10 = assay type: functional, cell-based, Homo sapiens; conditions: ramos-2g6-4c10;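 further: growth inhibition of the cell line, measured by a cell viability read-out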
# Description: SANGER: Inhibition of human Ramos-2G6-4C10 cell growth in a cell viability assay.
# NCI-H1648 = assay type: functional, cell-based, Homo sapiens; conditions: nci-h1648;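 further: cell viability assay measuring inhibition of NCI-H1648 cell growth, from the Sanger screening data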
# Description: SANGER: Inhibition of human NCI-H1648 cell growth in a cell viability assay.
# SJSA-1 = assay type: functional, cell-based, Homo sapiens; conditions: sjsa-1;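 further: growth inhibition of human SJSA-1 cells, read out through a cell viability measurement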
# Description: SANGER: Inhibition of human SJSA-1 cell growth in a cell viability assay.
# SNU-5 = assay type: functional, cell-based, Homo sapiens; conditions: snu-5;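 further: cell viability readout used to measure growth inhibition in human NCI-SNU-5 cells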
# Description: SANGER: Inhibition of human NCI-SNU-5 cell growth in a cell viability assay.
# LB771-HNC = assay type: functional, cell-based, Homo sapiens; conditions: lb771-hnc;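 further: growth inhibition of LB771-HNC human cells, read out with a cell viability assay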
# Description: SANGER: Inhibition of human LB771-HNC cell growth in a cell viability assay.
# MHH-NB-11 = assay type: functional, cell-based, Homo sapiens; conditions: mhh-nb-11;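 further: growth inhibition of human MHH-NB-11 cells, read out by a cell viability assay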
# Description: SANGER: Inhibition of human MHH-NB-11 cell growth in a cell viability assay.
# LU-139 = assay type: functional, cell-based, Homo sapiens; conditions: lu-139
# Description: SANGER: Inhibition of human LU-139 cell growth in a cell viability assay.
# GI-1 = assay type: functional, cell-based, Homo sapiens; conditions: gi-1;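 further: growth inhibition of human GI-1 cells, measured with a cell viability readout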
# Description: SANGER: Inhibition of human GI-1 cell growth in a cell viability assay.
# LS-1034 = assay type: functional, cell-based, Homo sapiens; conditions: ls-1034
# Description: SANGER: Inhibition of human LS-1034 cell growth in a cell viability assay.
# KNS-42 = assay type: functional, cell-based, Homo sapiens; conditions: kns-42;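 further: growth inhibition of KNS-42 cells, read out with a cell viability assay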
# Description: SANGER: Inhibition of human KNS-42 cell growth in a cell viability assay.
# NCI-H82 = assay type: functional, cell-based, Homo sapiens; conditions: nci-h82;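 further: growth inhibition of NCI-H82 cells, measured with a cell viability readout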
# Description: SANGER: Inhibition of human NCI-H82 cell growth in a cell viability assay.
# NEC8 = assay type: functional, cell-based, Homo sapiens; conditions: nec8;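 further: growth inhibition of human NEC8 cells, read out by a cell viability assay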
# Description: SANGER: Inhibition of human NEC8 cell growth in a cell viability assay.
# TE-11 = assay type: functional, cell-based, Homo sapiens; conditions: te-11;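 further: growth inhibition of human TE-11 cells, read out by a cell viability assay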
# Description: SANGER: Inhibition of human TE-11 cell growth in a cell viability assay.
# OVCAR-4 = assay type: functional, cell-based, Homo sapiens; conditions: ovcar-4;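 further: growth inhibition of human OVCAR-4 cells, measured with a cell viability assay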
# Description: SANGER: Inhibition of human OVCAR-4 cell growth in a cell viability assay.
# TGW = assay type: functional, cell-based, Homo sapiens; conditions: tgw;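 further: growth inhibition of human TGW cells, read out with a cell viability assay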
# Description: SANGER: Inhibition of human TGW cell growth in a cell viability assay.
# DJM-1 = assay type: functional, cell-based, Homo sapiens; conditions: djm-1;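 further: growth inhibition of human DJM-1 cells, read out by a cell viability assay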
# Description: SANGER: Inhibition of human DJM-1 cell growth in a cell viability assay.
# DMS-114 = assay type: functional, cell-based, Homo sapiens; conditions: dms-114
# NCI-H226 = assay type: functional, cell-based, Homo sapiens; conditions: nci-h226;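 further: cell viability read-out used to gauge growth inhibition of the cells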
# Description: SANGER: Inhibition of human NCI-H226 cell growth in a cell viability assay.
# ATN-1 = assay type: functional, cell-based, Homo sapiens; conditions: atn-1;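 further: growth inhibition of human ATN-1 cells, read out with a cell viability assay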
# Description: SANGER: Inhibition of human ATN-1 cell growth in a cell viability assay.
# BB30-HNC = assay type: functional, cell-based, Homo sapiens; conditions: bb30-hnc;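 further: growth inhibition of the cultured cell line, read out by a cell viability assay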
# Description: SANGER: Inhibition of human BB30-HNC cell growth in a cell viability assay.
# LB2518-MEL = assay type: functional, cell-based, Homo sapiens; conditions: lb2518-mel;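 further: growth inhibition of human LB2518-MEL cells, measured with a cell viability assay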
# Description: SANGER: Inhibition of human LB2518-MEL cell growth in a cell viability assay.
# COR-L88 = assay type: functional, cell-based, Homo sapiens; conditions: cor-l88;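 further: growth inhibition of COR-L88 cells, read out with a cell viability assay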
# Description: SANGER: Inhibition of human COR-L88 cell growth in a cell viability assay.
# OMC-1 = assay type: functional, cell-based, Homo sapiens; conditions: omc-1;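 further: growth inhibition of the OMC-1 cell line, measured by a cell viability assay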
# Description: SANGER: Inhibition of human OMC-1 cell growth in a cell viability assay.
# EW-18 = assay type: functional, cell-based, Homo sapiens; conditions: ew-18;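 further: growth inhibition of EW-18 cells, read out by a cell viability assay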
# Description: SANGER: Inhibition of human EW-18 cell growth in a cell viability assay.
# MOLT-16 = assay type: functional, cell-based, Homo sapiens; conditions: molt-16;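 further: growth inhibition of human MOLT-16 cells, read out with a cell viability assay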
# Description: SANGER: Inhibition of human MOLT-16 cell growth in a cell viability assay.
# NB10 = assay type: functional, cell-based, Homo sapiens; conditions: nb10;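 further: growth inhibition of NB10 cells, read out by a cell viability assay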
# Description: SANGER: Inhibition of human NB10 cell growth in a cell viability assay.
# COLO-824 = assay type: functional, cell-based, Homo sapiens; conditions: colo-824
# Description: SANGER: Inhibition of human COLO-824 cell growth in a cell viability assay.
# KM-H2 = assay type: functional, cell-based, Homo sapiens; conditions: km-h2;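 further: growth inhibition of KM-H2 cells, read out by a cell viability assay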
# Description: SANGER: Inhibition of human KM-H2 cell growth in a cell viability assay.
# LOX IMVI = assay type: functional, cell-based, Homo sapiens; conditions: lox imvi
# Description: SANGER: Inhibition of human LOXIMVI cell growth in a cell viability assay.
# HuTu80 = assay type: functional, cell-based, Homo sapiens, HUTU-80; conditions: hutu-80;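 further: growth inhibition of HuTu80 human cells, determined with a cell viability readout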
# Description: SANGER: Inhibition of human HUTU-80 cell growth in a cell viability assay.
# AM-38 = assay type: functional, cell-based, Homo sapiens; conditions: am-38;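 further: growth inhibition of AM-38 cells of human origin, read out by a cell viability assay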
# Description: SANGER: Inhibition of human AM-38 cell growth in a cell viability assay.
# MSTO-211H = assay type: functional, cell-based, Homo sapiens; conditions: msto-211h
# Description: SANGER: Inhibition of human MSTO-211H cell growth in a cell viability assay.
# HCC1187 = assay type: functional, cell-based, Homo sapiens; conditions: hcc1187;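 further: growth inhibition of HCC1187 cells, read out with a cell viability assay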
# Description: SANGER: Inhibition of human HCC1187 cell growth in a cell viability assay.
# ES5 = assay type: functional, cell-based, Homo sapiens; conditions: es5;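 further: growth inhibition of human ES5 cells, read out by a cell viability assay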
# Description: SANGER: Inhibition of human ES5 cell growth in a cell viability assay.
# HH = assay type: functional, cell-based, Homo sapiens; conditions: hh
# Description: SANGER: Inhibition of human HH cell growth in a cell viability assay.
# LB831-BLC = assay type: functional, cell-based, Homo sapiens; conditions: lb831-blc;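 further: growth inhibition of LB831-BLC cells, read out with a cell viability assay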
# Description: SANGER: Inhibition of human LB831-BLC cell growth in a cell viability assay.
# ALL-PO = assay type: functional, cell-based, Homo sapiens; conditions: all-po;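 further: growth inhibition of ALL-PO cells, read out by a cell viability assay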
# Description: SANGER: Inhibition of human ALL-PO cell growth in a cell viability assay.
# SNB-75 = assay type: functional, cell-based, Homo sapiens; conditions: snb-75;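 further: cell viability assay measuring growth inhibition of human SNB-75 cells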
# Description: SANGER: Inhibition of human SNB75 cell growth in a cell viability assay.
# KALS-1 = assay type: functional, cell-based, Homo sapiens; conditions: kals-1;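 further: growth inhibition of KALS-1 cells, determined with a cell viability assay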
# Description: SANGER: Inhibition of human KALS-1 cell growth in a cell viability assay.
# HC-1 = assay type: functional, cell-based, Homo sapiens; conditions: hc-1;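 further: growth inhibition of HC-1 cells measured by a cell viability assay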
# Description: SANGER: Inhibition of human HC-1 cell growth in a cell viability assay.
sequence,measurement,setting,value
BLEOMYCIN,IC50,KARPAS-299,27.2 µM
same,IC50,K5,72.4 µM
same,IC50,TGBC24TKB,204 µM
same,IC50,KE-37,25.9 µM
same,IC50,Lu-65,19.5 µM
same,IC50,SCH,444 µM
same,IC50,RS4-11,0.00164 µM
same,IC50,NCI-H1650,0.499 µM
same,IC50,D-502MG,1010 µM
same,IC50,Ramos-2G6-4C10,9.88 µM
same,IC50,NCI-H1648,20.3 µM
same,IC50,SJSA-1,2.19 µM
same,IC50,SNU-5,0.643 µM
same,IC50,LB771-HNC,209 µM
same,IC50,MHH-NB-11,2.01 µM
same,IC50,LU-139,3440 µM
same,IC50,GI-1,1.2 µM
same,IC50,LS-1034,35.4 µM
same,IC50,KNS-42,693 µM
same,IC50,NCI-H82,225 µM
same,IC50,NEC8,0.0269 µM
same,IC50,TE-11,6.08 µM
same,IC50,OVCAR-4,4.41 µM
same,IC50,TGW,65.8 µM
same,IC50,DJM-1,1.13 µM
same,IC50,DMS-114,6.79 µM
same,IC50,NCI-H226,77.4 µM
same,IC50,ATN-1,18.9 µM
same,IC50,BB30-HNC,0.0163 µM
same,IC50,LB2518-MEL,0.182 µM
same,IC50,COR-L88,73.4 µM
same,IC50,OMC-1,11.9 µM
same,IC50,EW-18,75.8 µM
same,IC50,MOLT-16,29.5 µM
same,IC50,NB10,13.8 µM
same,IC50,COLO-824,53.3 µM
same,IC50,KM-H2,6.97 µM
same,IC50,LOX IMVI,0.452 µM
same,IC50,HuTu80,0.000136 µM
same,IC50,AM-38,4.94 µM
same,IC50,MSTO-211H,149 µM
same,IC50,HCC1187,32.9 µM
same,IC50,ES5,0.505 µM
same,IC50,HH,2.29 µM
same,IC50,LB831-BLC,8.38 µM
same,IC50,ALL-PO,0.986 µM
same,IC50,SNB-75,1.61 µM
same,IC50,KALS-1,11.7 µM
same,IC50,HC-1,0.993 µM
